Measurements taken from US9409907B2, “Inhibitor compounds” (Cancer Research Technology Limited, priority 2012, dated 2016).

Biological target: full length MPS1 (Homo sapiens (Human), UniProt P33981)
Assay: Measurement of inhibition of MPS1 kinase (Caliper EZ reader mobility-shift enzyme assay)
Format: biochemical
Details: full length MPS1 12.5 nM or 3 nM, H236 peptide 5 μM, ATP 10 μM, 60 min at room temperature
Experimental: Measurement of Inhibition of MPS1 Kinase
The reaction was carried out for 60 min at room temperature and stopped by the addition of buffer (10 μl) containing 20 mM EDTA, 0.05% (v/v) Brij-35, in 0.1M HEPES-buffered saline (Free acid, Sigma, UK). The plate was read on a Caliper EZ reader II (Caliper Life Sciences).
The % inhibition of the compounds is calculated relative to the means of selected control wells.

Sequence of full length MPS1 (P33981 whole entry): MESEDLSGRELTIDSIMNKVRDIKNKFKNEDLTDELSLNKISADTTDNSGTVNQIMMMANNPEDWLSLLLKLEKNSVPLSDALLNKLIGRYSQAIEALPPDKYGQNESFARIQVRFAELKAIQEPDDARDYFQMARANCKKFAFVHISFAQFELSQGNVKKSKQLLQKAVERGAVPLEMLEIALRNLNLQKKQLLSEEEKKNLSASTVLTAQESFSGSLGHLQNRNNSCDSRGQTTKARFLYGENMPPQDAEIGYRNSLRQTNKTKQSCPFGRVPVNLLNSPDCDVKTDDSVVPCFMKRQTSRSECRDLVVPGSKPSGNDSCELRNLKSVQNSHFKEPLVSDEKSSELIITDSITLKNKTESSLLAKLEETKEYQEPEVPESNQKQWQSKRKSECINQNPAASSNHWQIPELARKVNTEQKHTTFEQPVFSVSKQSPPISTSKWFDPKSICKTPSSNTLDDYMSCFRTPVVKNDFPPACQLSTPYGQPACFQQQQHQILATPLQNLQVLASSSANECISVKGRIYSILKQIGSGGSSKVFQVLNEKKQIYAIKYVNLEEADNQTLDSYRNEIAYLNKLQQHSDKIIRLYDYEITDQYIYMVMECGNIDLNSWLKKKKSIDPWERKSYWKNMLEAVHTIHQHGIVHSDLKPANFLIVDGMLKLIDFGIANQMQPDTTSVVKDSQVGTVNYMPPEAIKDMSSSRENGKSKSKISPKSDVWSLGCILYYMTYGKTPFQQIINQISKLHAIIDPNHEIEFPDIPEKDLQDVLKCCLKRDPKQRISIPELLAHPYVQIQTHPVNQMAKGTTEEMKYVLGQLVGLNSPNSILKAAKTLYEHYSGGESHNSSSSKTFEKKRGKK

| Structure (SMILES) | IC50 [nM] |
| --- | --- |
| COc1cc(-c2cnn(C)c2)ccc1Nc1ncc2ccnc(NCC(C)(F)F)c2n1 [Example 84, N8-(2,2-difluoropropyl)-N2-(2-methoxy-4-(1-methyl-1H-pyrazol-4-yl)phenyl)pyrido[3,4-d]pyrimidine-2,8-diamine] | 14 |
| COCC(C)(C)CNc1nccc2cnc(Nc3ccc(-c4cnn(C)c4)cc3OC)nc12 [Example 85, N8-(3-methoxy-2,2-dimethylpropyl)-N2-(2-methoxy-4-(1-methyl-1H-pyrazol-4-yl)phenyl)pyrido[3,4-d]pyrimidine-2,8-diamine] | 24 |
| COc1cc(-c2cnn(C)c2)ccc1Nc1ncc2ccnc(NCC(C)(C)OC)c2n1 [Example 86, N8-(2-methoxy-2-methylpropyl)-N2-(2-methoxy-4-(1-methyl-1H-pyrazol-4-yl)phenyl)pyrido[3,4-d]pyrimidine-2,8-diamine] | 5 |
| COc1cc(-c2cnn(C)c2)ccc1Nc1ncc2ccnc(NCC(F)(F)F)c2n1 [Example 87, N2-(2-methoxy-4-(1-methyl-1H-pyrazol-4-yl)phenyl)-N8-(2,2,2-trifluoroethyl)pyrido[3,4-d]pyrimidine-2,8-diamine] | 75 |
| COc1cc(-c2cnn(C)c2)ccc1Nc1ncc2ccnc(N3CCC4(COC4)C3)c2n1 [Example 88, N-(2-methoxy-4-(1-methyl-1H-pyrazol-4-yl)phenyl)-8-(2-oxa-6-azaspiro[3.4]oxtan-6-yl)pyrido[3,4-d]pyrimidin-2-amine] | 3 |
| COc1cc(-c2cnn(C)c2)ccc1Nc1ncc2ccnc(NCC3(O)CCC3)c2n1 [Example 89, 1-((2-(2-methoxy-4-(1-methyl-1H-pyrazol-4-yl)phenylamino)pyrido[3,4-d]pyrimidin-8-ylamino)methyl)cyclobutanol] | 7 |
| CCn1cc(-c2nccc3cnc(Nc4ccc(-c5cnn(C)c5)cc4OC)nc23)cn1 [Example 91, 8-(1-ethyl-1H-pyrazol-4-yl)-N-(2-methoxy-4-(1-methyl-1H-pyrazol-4-yl)phenyl)pyrido[3,4-d]pyrimidin-2-amine] | 10 |
| COc1cc(-c2cnn(C)c2)ccc1Nc1ncc2ccnc(-c3cnn(C(C)C)c3)c2n1 [Example 92, 8-(1-isopropyl-1H-pyrazol-4-yl)-N-(2-methoxy-4-(1-methyl-1H-pyrazol-4-yl)phenyl)pyrido[3,4-d]pyrimidin-2-amine] | 14 |
| COc1cc(-c2cnn(C)c2)ccc1Nc1ncc2ccnc(-c3cnn(CC(F)F)c3)c2n1 [Example 93, 8-(1-(2,2-difluoroethyl)-1H-pyrazol-4-yl)-N-(2-methoxy-4-(1-methyl-1H-pyrazol-4-yl)phenyl)pyrido[3,4-d]pyrimidin-2-amine] | 10 |
| COc1cc(-c2cnn(C)c2)ccc1Nc1ncc2ccnc(Cl)c2n1 [Example 94, 8-chloro-N-(2-methoxy-4-(1-methyl-1H-pyrazol-4-yl)phenyl)pyrido[3,4-d]pyrimidin-2-amine] | 164 |
| Cc1cc(-c2cnn(C)c2)ccc1Nc1ncc2ccnc(NCC3CC3)c2n1 [Example 99, N8-(cyclopropylmethyl)-N2-(2-methyl-4-(1-methyl-1H-pyrazol-4-yl)phenyl)pyrido[3,4-d]pyrimidine-2,8-diamine] | 8 |
| CCOc1cc(-c2cnn(C)c2)ccc1Nc1ncc2ccnc(NCC3CC3)c2n1 [Example 101, N8-(cyclopropylmethyl)-N2-(2-ethoxy-4-(1-methyl-1H-pyrazol-4-yl)phenyl)pyrido[3,4-d]pyrimidine-2,8-diamine] | 49 |
| CCOc1cc(-c2cnn(C)c2)ccc1Nc1ncc2ccnc(NC3CCOCC3)c2n1 [Example 102, N2-(2-ethoxy-4-(1-methyl-1H-pyrazol-4-yl)phenyl)-N8-(tetrahydro-2H-pyran-4-yl)pyrido[3,4-d]pyrimidine-2,8-diamine] | 10 |
| COc1cc(-c2cnn(C)c2)ccc1Nc1cc2c(-c3cnn(C)c3)nccc2cn1 [Example 103, N-(2-methoxy-4-(1-methyl-1H-pyrazol-4-yl)phenyl)-5-(1-methyl-1H-pyrazol-4-yl)-2,6-naphthyridin-3-amine] | 12 |
| COc1cc(-c2cnc(C)n2C)ccc1Nc1cc2c(-c3cnn(C)c3)nccc2cn1 [Example 104, N-(4-(1,2-dimethyl-1H-imidazol-5-yl)-2-methoxyphenyl)-5-(1-methyl-1H-pyrazol-4-yl)-2,6-naphthyridin-3-amine] | 7 |
| COc1cc(-c2cnn(C)c2)ccc1Nc1cc2c(NC3CCCCC3)nccc2cn1 [Example 105, N1-cyclohexyl-N7-(2-methoxy-4-(1-methyl-1H-pyrazol-4-yl)phenyl)-2,6-naphthyridine-1,7-diamine] | 56 |
| COc1cc(-c2cnn(C)c2)ccc1Nc1cc2c(NCC3CC3)nccc2cn1 [Example 106, N1-(cyclopropylmethyl)-N7-(2-methoxy-4-(1-methyl-1H-pyrazol-4-yl)phenyl)-2,6-naphthyridine-1,7-diamine] | 82 |
| COc1cc(-c2cnn(C)c2)ccc1Nc1ncc2ccnc(NS(=O)(=O)C(C)(C)C)c2n1 [Example 107, N-(2-(2-methoxy-4-(1-methyl-1H-pyrazol-4-yl)phenylamino)pyrido[3,4-d]pyrimidin-8-yl)-2-methylpropane-2-sulfonamide] | 39 |

| Structure (SMILES) | IC50 [nM] |
| --- | --- |
| COc1cc(-c2cnn(C)c2)ccc1Nc1ncc2ccnc(N(C)C)c2n1 [Example 108, N^2-(2-methoxy-4-(1-methyl-1H-pyrazol-4-yl)phenyl)-N^8,N^8-dimethylpyrido[3,4-d]pyrimidine-2,8-diamine] | 16 |
| COc1cc(-c2cnn(C)c2)ccc1Nc1ncc2ccnc(NCC3(C)COC3)c2n1 [Example 109, N^2-(2-methoxy-4-(1-methyl-1H-pyrazol-4-yl)phenyl)-N^8-((3-methyloxetan-3-yl)methyl)pyrido(3,4-d]pyrimidine-2,8-diamine] | 2 |
| CNc1nccc2cnc(Nc3ccc(-c4cnn(C)c4)cc3OC)nc12 [Example 110, N^2-(2-methoxy-4-(1-methyl-1H-pyrazol-4-yl)phenyl)-N^8-methylpyrido[3,4-d]pyrimidine-2,8-diamine] | 17 |
| COc1cc(-c2cnn(C)c2)ccc1Nc1ncc2ccnc(NC3COC3)c2n1 [Example 111, N^2-(2-methoxy-4-(1-methyl-1H-pyrazol-4-yl)phenyl)-N^8-(oxetan-3-yl)pyrido[3,4-d]pyrimidine-2,8-diamine] | > 1000 |
| COc1cc(-c2cnn(C)c2)ccc1Nc1ncc2ccnc(NCC3(O)CC3)c2n1 [Example 112, 1-((2-(2-methoxy-4-(1-methyl-1H-pyrazol-4-yl)phenylamino)pyrido[3,4-d]pyrimidin-8-ylamino)methyl)cyclopropanol] | 5 |
| COc1cc(-c2cnn(C)c2)ccc1Nc1ncc2ccnc(NC3CCN(C)CC3)c2n1 [Example 113, N^2-(2-methoxy-4-(1-methyl-1H-pyrazol-4-yl)phenyl)-N^8-(1-methylpiperidin-4-yl)pyrido[3,4-d]pyrimidine-2,8-diamine] | 9 |
| COc1cc(-c2cnn(C)c2)ccc1Nc1ncc2ccnc(NC(C)(C)CO)c2n1 [Example 114] | 17 |
| COc1cc(-c2cnn(C)c2)ccc1Nc1ncc2ccnc(N3CC4(COC4)C3)c2n1 [Example 115, N-(2-methoxy-4-(1-methyl-1H-pyrazol-4-yl)phenyl)-8-(2-oxa-6-azaspiro[3.3]heptan-6-yl)pyrido[3,4-d]pyrimidin-2-amine] | 3 |
| COc1cc(-c2cnn(C)c2)ccc1Nc1ncc2ccnc(NCC3CCO3)c2n1 (centres unmarked) [Example 116, N^2-(2-methoxy-4-(1-methyl-1H-pyrazol-4-yl)phenyl)-N8-(oxetan-2-ylmethyl)pyrido[3,4-d]pyrimidine-2,8-diamine] | 8 |
| COc1cc(-c2cnn(C)c2)ccc1Nc1ncc2ccnc(N3CCS(=O)(=O)CC3)c2n1 [Example 118, 4-(2-((2-methoxy-4-(1-methyl-1H-pyrazol-4-yl)phenyl)amino)pyrido[3,4-d]pyrimidin-8-yl)thiomorpholine 1,1-dioxide] | 11 |
| COc1cc(-c2cnn(C)c2)ccc1Nc1ncc2ccnc(N3CC4(CCOCC4)C3)c2n1 [Example 119, N-(2-methoxy-4-(1-methyl-1H-pyrazol-4-yl)phenyl)-8-(7-oxa-2-azaspiro[3.5]nonan-2-yl)pyrido[3,4-d]pyrimidin-2-amine] | 3 |
| COc1cc(-c2cnn(C)c2)ccc1Nc1ncc2ccnc(N3CC4(CCOC4)C3)c2n1 [Example 120, N-(2-methoxy-4-(1-methyl-1H-pyrazol-4-yl)phenyl)-8-(6-oxa-2-azaspiro[3.4]octan-2-yl)pyrido[3,4-d]pyrimidin-2-amine] | 3 |
| COc1cc(-c2cnn(C)c2)ccc1Nc1ncc2ccnc(N3CC(C#N)C3)c2n1 [Example 121, 1-(2-(2-methoxy-4-(1-methyl-1H-pyrazol-4-yl)phenylamino)pyrido[3,4-d]pyrimidin-8-yl)azetidine-3-carbonitrile] | 8 |
| COc1cc(-c2cnn(C)c2)ccc1Nc1ncc2ccnc(N3CCC4(CCOC4)C3)c2n1 (centres unmarked) [Example 122, N-(2-methoxy-4-(1-methyl-1H-pyrazol-4-yl)phenyl)-8-(2-oxa-7-azaspiro[4.4]nonan-7-yl)pyrido[3,4-d]pyrimidin-2-amine] | 3 |
| COc1cc(-c2cnn(C)c2)ccc1Nc1ncc2ccnc(N3CCCC4(COC4)C3)c2n1 [Example 123, N-(2-methoxy-4-(1-methyl-1H-pyrazol-4-yl)phenyl)-8-(2-oxa-6-azaspiro[3.5]nonan-6-yl)pyrido[3,4-d]pyrimidin-2-amine] | 11 |
| COc1cc(-c2cnn(C)c2)ccc1Nc1ncc2ccnc(NCC3(F)COC3)c2n1 [Example 124, N^8-((3-fluorooexetan-3-yl)methyl)-N^2-(2-methoxy-4-(1-methyl-1H-pyrazol-4-yl)phenyl)pyrido[3,4-d]pyrimidine-2,8-diamine] | > 1000 |
| COc1cc(-c2cnn(C)c2)ccc1Nc1ncc2ccnc(NCCO)c2n1 [Example 126, 2-(2-(2-Methoxy-4-(1-methyl-1H-pyrazol-4-yl)phenylamino)pyrido[3,4-d]pyrimidin-8-ylamino)ethanol] | 11 |
